{
  "source": "patent US20040161399A1",
  "about": "“Use of nonimmunosuppressive [$g(g)-hydroxy-n-methyl-l-leucine4]cyclosporin derivatives for treating hair loss” (priority 2001, published 2004)",
  "key": {"[1]": {"tested_on": "Female C57BL/6 mice", "experiment": "Evaluation of hair restoring effect in mice (topical application to shaved back)", "assay_type": "in vivo", "conditions": "for Area rate of hair regrowth (%): C57BL/6 mice, hair-removed back, 100 μl of 0.1% w/v once a day for 30 days, visual examination; for hair restoring / hair growth promoting effect (in words): qualitative statement", "protocol": "Evaluation of Hair Restoring Effect in Mice\nFemale C57BL/6 mice of ages 6 to 7 weeks were utilized. After removing hairs on the middle of the back with an electric shaver, the mice were weighed and randomly assigned to the test groups with an even distribution of weights. […] The results were determined by visual examination, in terms of degrees of hair regrowth. With respect to respective hair-removed areas, rates of new hair growth were examined and compared."}, "[2]": {"tested_on": "splenocytes (responder cells from BALB/c mice, stimulator cells from C57BL/6 mice)", "experiment": "Mixed Lymphocyte Reaction (MLR) method, 3H-thymidine incorporation", "assay_type": "cell-based", "conditions": "qualitative statement", "protocol": "Evaluation of Non-Immunosuppressive Activity In Vitro\nResponder cells from BALB/c mice were mixed with an equal number of stimulator cells from C57BL/6 mice pre-treated with mitomycin. […] After 4 days of incubation, ^3H-thymidine was added to the mixtures and incubated for an additional 4 hours. Then, the amount of thymidine incorporated into the cells was measured (liquid scintillation counter), and IC50 (μg/ml) of respective cyclosporins were calculated."}},
  "note": "Starred links: 1 amine or outer side, 2 acyl side, 3 side chain; linkers in the order of their positions; H or OH if unused. Non-standard residues stand in square brackets, D forms with d. Residues, ends and D or L forms follow the SMILES beside them. AlaΨ(CSNH)dAla = C[C@H](N[*:1])C(=S)N[C@H](C)C(=O)[*:2]; MeBmt = C/C=C/C[C@@H](C)[C@@H](O)[C@H](NC)C(=O)O; NMeLeu(4-OH) = CN[C@@H](CC(C)(C)O)C(=O)O; NMeL = CN[C@@H](CC(C)C)C(=O)O; NMeV = CN[C@H](C(=O)O)C(C)C; dHiv = CC(C)[C@@H](O)C(=O)O; dNMeA = CN[C@H](C)C(=O)O; Abu = CC[C@H](N)C(=O)O; Sar = CNCC(=O)O",
  "data": [
    {"compound": "C/C=C/C[C@@H](C)[C@@H](O)[C@H]1C(=O)N[C@@H]([C@@H](C)O)C(=O)N(C)CC(=O)N(C)[C@@H](CC(C)(C)O)C(=O)N[C@@H](CC(C)C)C(=O)N(C)[C@@H](CC(C)C)C(=O)N[C@@H](C)C(=O)O[C@H](C(C)C)C(=O)N(C)[C@@H](CC(C)C)C(=O)N[C@@H](CC(C)C)C(=O)N(C)[C@@H](C(C)C)C(=O)N1C", "note": "[[L-threonine^2][γ-hydroxy-N-methyl-L-leucine^4][L-leucine^5][D-2-hydroxyisovaleric acid^8][L-leucine^10] cyclosporin A] (cyclo([MeBmt]T[Sar][NMeLeu(4-OH)]L[NMeL]A[dHiv][NMeL]L[NMeV]))", "values": [
      {"measurement": "Area rate of hair regrowth (%)", "setting": "[1]", "result": 90, "unit": "%"}
    ]},
    {"compound": "C/C=C/C[C@@H](C)[C@@H](O)[C@H]1C(=O)N[C@@H](CC)C(=O)N(C)[C@H](C)C(=O)N(C)[C@@H](CC(C)(C)O)C(=O)N[C@@H](C(C)C)C(=O)N(C)[C@@H](CC(C)C)C(=O)N[C@@H](C)C(=O)N[C@H](C)C(=O)N(C)[C@@H](CC(C)C)C(=O)N(C)[C@@H](CC(C)C)C(=O)N(C)[C@@H](C(C)C)C(=O)N1C", "note": "[[N-methyl-D-alanine^3][γ-hydroxy-N-methyl-L-leucine^4] cyclosporin A] (cyclo([MeBmt][Abu][dNMeA][NMeLeu(4-OH)]V[NMeL]A[dA][NMeL][NMeL][NMeV]))", "values": [
      {"measurement": "Area rate of hair regrowth (%)", "setting": "[1]", "result": 95, "unit": "%"},
      {"measurement": "hair restoring / hair growth promoting effect (in words)", "setting": "[1]", "result": "has a hair restoring effect"},
      {"measurement": "immunosuppressive activity (in words)", "setting": "[2]", "result": "reduced"}
    ]},
    {"compound": "C/C=C/C[C@@H](C)[C@@H](O)[C@H]1C(=O)N[C@@H](CC)C(=O)N(C)CC(=O)N(C)[C@@H](CC(C)(C)O)C(=O)N[C@@H](C(C)C)C(=O)N(C)[C@@H](CC(C)C)C(=O)N[C@@H](C)C(=S)N[C@H](C)C(=O)N(C)[C@@H](CC(C)C)C(=O)N(C)[C@@H](CC(C)C)C(=O)N(C)[C@@H](C(C)C)C(=O)N1C", "note": "[[γ-hydroxy-N-methyl-L-leucine^4][alaninethiomide^7, ^7ψ^8 CS—NH] cyclosporin A] (cyclo([MeBmt][Abu][Sar][NMeLeu(4-OH)]V[NMeL][AlaΨ(CSNH)dAla][NMeL][NMeL][NMeV]))", "values": [
      {"measurement": "Area rate of hair regrowth (%)", "setting": "[1]", "result": 91, "unit": "%"}
    ]},
    {"compound": "[γ-hydroxy-N-methyl-L-leucine^4] cyclosporin A [reference compound]", "values": [
      {"measurement": "hair restoring / hair growth promoting effect (in words)", "setting": "[1]", "result": "has a hair restoring effect"},
      {"measurement": "immunosuppressive activity (in words)", "setting": "[2]", "result": "no immunosuppressive activity"}
    ]}
  ]
}
